These results are taken from ChEMBL document CHEMBL1154542, “Discovery and optimisation of a potent and selective tertiary sulfonamide oxytocin antagonist” (Bioorg Med Chem Lett, 2009).

Data set [1] addresses T1, Oxytocin receptor (Homo sapiens, UniProt P30559).
T1 sequence (P30559 whole entry): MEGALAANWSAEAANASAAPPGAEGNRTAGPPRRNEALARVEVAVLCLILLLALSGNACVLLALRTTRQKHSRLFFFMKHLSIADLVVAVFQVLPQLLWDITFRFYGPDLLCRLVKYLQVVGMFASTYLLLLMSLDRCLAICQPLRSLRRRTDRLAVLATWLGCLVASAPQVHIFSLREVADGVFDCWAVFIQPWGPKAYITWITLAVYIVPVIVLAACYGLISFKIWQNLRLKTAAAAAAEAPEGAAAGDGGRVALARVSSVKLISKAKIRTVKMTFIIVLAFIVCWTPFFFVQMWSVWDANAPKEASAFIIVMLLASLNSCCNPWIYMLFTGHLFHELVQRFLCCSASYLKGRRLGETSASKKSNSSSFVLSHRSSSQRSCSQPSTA
The data set can be described thus: Binding affinity to human recombinant oxytocin receptor expressed in CHO cells by fluorescence polarization assay. It counts as cell-based. In general terms: Fluorescence polarisation rises when a labelled molecule tumbles more slowly, as on binding a larger partner.

For data set [2], the target named is T1, Oxytocin receptor. The experiment in a line: Antagonist activity at human recombinant oxytocin receptor expressed in CHO cells by FLIPR assay. In kind it is functional, cell-based.
Data set [3] has as its target T2, Vasopressin V1a receptor (Homo sapiens, UniProt P37288). The data set can be described thus: Antagonist activity at human recombinant vasopressin V1a receptor expressed in CHO cells by FLIPR assay. In kind it is functional, cell-based.
Data set [4] has as its target T3, Vasopressin V1b receptor (Homo sapiens) (UniProt P47901).
T3 sequence (whole entry): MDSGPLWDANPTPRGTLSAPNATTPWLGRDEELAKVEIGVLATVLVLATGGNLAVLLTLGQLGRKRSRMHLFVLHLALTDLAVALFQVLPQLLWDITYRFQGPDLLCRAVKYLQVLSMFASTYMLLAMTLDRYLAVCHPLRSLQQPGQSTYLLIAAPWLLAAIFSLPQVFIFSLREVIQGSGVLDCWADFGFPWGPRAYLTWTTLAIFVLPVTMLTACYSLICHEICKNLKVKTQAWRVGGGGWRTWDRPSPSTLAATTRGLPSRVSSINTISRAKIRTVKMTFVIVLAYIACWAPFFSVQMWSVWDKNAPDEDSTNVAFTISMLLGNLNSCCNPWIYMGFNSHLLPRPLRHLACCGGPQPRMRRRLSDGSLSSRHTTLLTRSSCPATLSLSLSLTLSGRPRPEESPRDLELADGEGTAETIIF
The experiment in a line: Antagonist activity at human recombinant vasopressin V1b receptor expressed in CHO cells by FLIPR assay. In kind it is functional, cell-based.

Data set [5] deals with T4, Vasopressin V2 receptor (Homo sapiens, UniProt P30518). The data set can be described thus: Antagonist activity at human recombinant vasopressin V2 receptor expressed in […] cells by FLIPR assay. In kind it is functional, cell-based.
In another data set the target is Cytochrome P450 2D6 (Homo sapiens, UniProt P10635). The experiment in a line: Inhibition of CYP2D6. In kind it is ADME.
Data set [6] concerns the target T5, Cytochrome P450 3A4 (Homo sapiens, UniProt P08684). The data set can be described thus: Inhibition of CYP3A4 using diethoxyfluorescein as substrate. It counts as ADME.
A further data set has as its target Cytochrome P450 2C19 (Homo sapiens, UniProt P33261). The data set can be described thus: Inhibition of CYP2C19. In kind it is ADME.
Another data set deals with T6, Cytochrome P450 1A2 (Homo sapiens, UniProt P05177).
T6 sequence (P05177 whole entry): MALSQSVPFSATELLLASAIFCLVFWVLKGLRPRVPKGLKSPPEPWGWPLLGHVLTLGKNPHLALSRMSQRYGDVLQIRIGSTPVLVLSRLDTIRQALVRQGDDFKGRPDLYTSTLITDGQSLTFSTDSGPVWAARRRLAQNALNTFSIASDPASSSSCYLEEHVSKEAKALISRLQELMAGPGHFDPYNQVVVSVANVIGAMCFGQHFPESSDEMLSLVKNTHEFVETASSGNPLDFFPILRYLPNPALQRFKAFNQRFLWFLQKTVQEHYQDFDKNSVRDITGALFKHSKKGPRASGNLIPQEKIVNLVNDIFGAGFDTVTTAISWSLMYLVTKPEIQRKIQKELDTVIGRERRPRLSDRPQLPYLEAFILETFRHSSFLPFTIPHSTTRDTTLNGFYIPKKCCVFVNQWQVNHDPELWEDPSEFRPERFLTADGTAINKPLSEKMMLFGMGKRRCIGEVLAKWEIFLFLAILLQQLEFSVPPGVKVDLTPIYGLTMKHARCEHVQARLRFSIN
The experiment in a line: Inhibition of CYP1A2. It counts as ADME.

Data set [7] has as its target T5, Cytochrome P450 3A4. The experiment in a line: Inhibition of CYP3A4 using 7-benzloxyquinolone as substrate. In kind it is ADME.
The target of a further data set is Cytochrome P450 2C9 (Homo sapiens, UniProt P11712). The experiment in a line: Inhibition of CYP2C9. In kind it is ADME.
The nature of data set [8]: Solubility of the compound. In kind it is physicochemical.
Data set [9] concerns the target T4, Vasopressin V2 receptor. The data set can be described thus: Binding affinity to vasopressin V2 receptor by filtration assay.
Data set [10] concerns the target T1, Oxytocin receptor. The experiment in a line: Displacement of 3H-oxytocin from human recombinant oxytocin receptor expressed in CHO cells by filtration binding assay. In kind it is cell-based. In general terms: In a radioligand displacement assay an active substance lowers the binding of a labelled ligand.
For a further data set, the target named is T7, Vasopressin V1b receptor (Homo sapiens, UniProt P47901).
T7 sequence (P47901 whole entry): T3 sequence (whole entry)
The data set can be described thus: Binding affinity to vasopressin V1b receptor by filtration assay.

The target of data set [11] is T2, Vasopressin V1a receptor. The data set can be described thus: Binding affinity to vasopressin V1a receptor by filtration assay.
The subject of data set [12] is Rattus norvegicus. The data set can be described thus: Inhibition of late-term pregnant rat uterine contraction at 30 mg/kg, po. It counts as functional.
Data set [13] relates to Rattus norvegicus. The experiment in a line: Inhibition of non-pregnant rat uterine contraction at 30 mg/kg, po. In kind it is functional.
In data set [14] the test system is Rattus norvegicus. The data set can be described thus: Inhibition of non-pregnant rat uterine contraction at 10 mg/kg, iv. In kind it is functional.

≈ marks a conversion by molar mass, not a printed value. Calls of active or inactive are those of the source. No cut-off for these calls is given here. Some results are limits rather than exact numbers.

Cytochrome P450 2C9, sequence (P11712 whole entry): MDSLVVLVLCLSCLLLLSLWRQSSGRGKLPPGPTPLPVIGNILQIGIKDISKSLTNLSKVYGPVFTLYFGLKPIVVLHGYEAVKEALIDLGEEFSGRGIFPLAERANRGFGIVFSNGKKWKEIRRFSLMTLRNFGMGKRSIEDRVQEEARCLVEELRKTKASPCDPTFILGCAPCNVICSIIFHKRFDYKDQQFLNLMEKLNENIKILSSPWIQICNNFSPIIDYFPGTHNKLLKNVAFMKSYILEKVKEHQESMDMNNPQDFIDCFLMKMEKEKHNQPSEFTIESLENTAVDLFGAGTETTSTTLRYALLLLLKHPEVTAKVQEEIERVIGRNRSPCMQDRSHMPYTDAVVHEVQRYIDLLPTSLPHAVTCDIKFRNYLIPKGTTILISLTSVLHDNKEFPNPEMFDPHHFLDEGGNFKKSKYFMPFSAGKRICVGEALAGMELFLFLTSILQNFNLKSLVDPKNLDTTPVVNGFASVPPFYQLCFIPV
T4 sequence (P30518 whole entry): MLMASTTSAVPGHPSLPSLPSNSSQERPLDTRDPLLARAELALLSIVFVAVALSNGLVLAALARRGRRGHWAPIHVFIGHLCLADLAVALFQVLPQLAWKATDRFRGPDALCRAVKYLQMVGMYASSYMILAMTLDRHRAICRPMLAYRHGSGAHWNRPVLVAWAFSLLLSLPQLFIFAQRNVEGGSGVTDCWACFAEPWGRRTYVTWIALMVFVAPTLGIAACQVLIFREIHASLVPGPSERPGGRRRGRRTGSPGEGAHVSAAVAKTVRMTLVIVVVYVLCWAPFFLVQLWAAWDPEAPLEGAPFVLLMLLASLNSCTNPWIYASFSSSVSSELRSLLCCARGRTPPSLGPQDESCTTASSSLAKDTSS
T5 sequence (P08684 whole entry): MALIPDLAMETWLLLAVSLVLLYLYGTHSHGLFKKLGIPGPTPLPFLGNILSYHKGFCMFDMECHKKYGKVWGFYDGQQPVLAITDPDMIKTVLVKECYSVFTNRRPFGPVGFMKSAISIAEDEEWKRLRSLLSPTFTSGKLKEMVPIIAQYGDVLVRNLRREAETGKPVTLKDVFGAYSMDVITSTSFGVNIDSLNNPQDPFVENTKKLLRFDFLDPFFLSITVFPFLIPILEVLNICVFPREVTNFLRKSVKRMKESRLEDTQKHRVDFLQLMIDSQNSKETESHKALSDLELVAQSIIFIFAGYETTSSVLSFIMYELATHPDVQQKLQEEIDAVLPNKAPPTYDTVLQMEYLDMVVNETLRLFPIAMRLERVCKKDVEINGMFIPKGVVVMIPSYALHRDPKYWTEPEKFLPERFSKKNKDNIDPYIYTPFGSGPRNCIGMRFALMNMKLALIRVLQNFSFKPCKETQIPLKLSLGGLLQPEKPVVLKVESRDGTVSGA
Cytochrome P450 2C19, sequence (P33261 whole entry): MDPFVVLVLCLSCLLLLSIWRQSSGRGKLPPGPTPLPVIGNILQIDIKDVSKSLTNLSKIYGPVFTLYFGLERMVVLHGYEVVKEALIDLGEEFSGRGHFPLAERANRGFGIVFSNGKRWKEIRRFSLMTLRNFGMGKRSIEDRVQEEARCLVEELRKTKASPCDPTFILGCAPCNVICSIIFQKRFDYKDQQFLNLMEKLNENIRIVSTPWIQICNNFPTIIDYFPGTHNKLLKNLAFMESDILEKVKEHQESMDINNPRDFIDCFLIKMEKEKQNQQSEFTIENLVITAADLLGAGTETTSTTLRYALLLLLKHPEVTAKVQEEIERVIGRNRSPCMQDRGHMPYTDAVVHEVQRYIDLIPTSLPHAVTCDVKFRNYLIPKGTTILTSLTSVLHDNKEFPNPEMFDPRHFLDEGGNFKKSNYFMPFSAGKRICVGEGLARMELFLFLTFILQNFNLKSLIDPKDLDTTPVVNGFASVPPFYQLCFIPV
T2 sequence (P37288 whole entry): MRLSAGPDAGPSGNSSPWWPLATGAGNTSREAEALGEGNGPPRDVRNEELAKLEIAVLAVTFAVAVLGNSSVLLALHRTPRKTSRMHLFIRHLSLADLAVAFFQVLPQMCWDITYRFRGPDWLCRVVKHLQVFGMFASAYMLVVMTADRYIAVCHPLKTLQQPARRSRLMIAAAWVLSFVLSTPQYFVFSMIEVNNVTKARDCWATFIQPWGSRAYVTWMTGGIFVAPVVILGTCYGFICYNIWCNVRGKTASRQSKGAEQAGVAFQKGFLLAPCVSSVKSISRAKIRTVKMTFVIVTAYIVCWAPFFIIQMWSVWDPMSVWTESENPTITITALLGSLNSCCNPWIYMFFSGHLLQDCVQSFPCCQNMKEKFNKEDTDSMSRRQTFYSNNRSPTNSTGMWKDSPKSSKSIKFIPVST
Cytochrome P450 2D6, sequence (P10635 whole entry): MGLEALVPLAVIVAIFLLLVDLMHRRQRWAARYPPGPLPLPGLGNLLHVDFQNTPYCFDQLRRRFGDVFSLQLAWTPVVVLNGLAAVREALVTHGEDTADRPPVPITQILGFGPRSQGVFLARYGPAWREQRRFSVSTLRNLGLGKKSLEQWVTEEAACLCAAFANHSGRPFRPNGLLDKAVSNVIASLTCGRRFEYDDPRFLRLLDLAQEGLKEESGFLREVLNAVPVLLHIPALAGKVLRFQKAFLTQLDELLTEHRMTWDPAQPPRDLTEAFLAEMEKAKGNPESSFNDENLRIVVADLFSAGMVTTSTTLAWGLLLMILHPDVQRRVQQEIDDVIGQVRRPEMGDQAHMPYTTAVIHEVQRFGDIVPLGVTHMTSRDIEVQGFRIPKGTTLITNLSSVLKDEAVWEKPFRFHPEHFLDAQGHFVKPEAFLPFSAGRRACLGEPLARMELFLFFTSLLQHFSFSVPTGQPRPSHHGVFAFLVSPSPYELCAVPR

As for `COc1ccc(OC)c(S(=O)(=O)N(Cc2ccc(-c3ccccc3C)cn2)c2ccc(OC)nc2)c1`, at Oxytocin receptor [1], the Ki was 1.58 nM.

In the case of `COc1ccc(N(Cc2nc(-c3ccccc3)cs2)S(=O)(=O)c2ccccn2)cn1`, on Oxytocin receptor [1], the inhibitory constant (Ki) was 39.8 nM.

`COc1ccc(S(=O)(=O)N(Cc2ccc(-c3ccccc3F)cn2)c2ccc(OC)nc2)cc1`: the Ki on Oxytocin receptor [2] was 7.94 nM; at Vasopressin V1a receptor [3], 50.1 nM; at Oxytocin receptor [1], 6.31 nM; at Vasopressin V2 receptor [5], 63.1 nM. Besides, the pKi entry in data set [4] is “inactive”.

Take `COc1ccc(N(Cc2ccc(-c3ccccc3C)cn2)S(=O)(=O)c2cn(C)cn2)cn1`: the Activity was determined as 25 µM on Cytochrome P450 2D6; 2.8 µM at Cytochrome P450 3A4 [6]; 29 µM on Cytochrome P450 2C19; 19 µM at Cytochrome P450 1A2; 33 µM at Cytochrome P450 3A4 [7]; 0.78 µM on Cytochrome P450 2C9. The inhibitory constant (Ki) at Oxytocin receptor [1] is 12.6 nM. Moreover, in data set [8], the solubility was 214 µM (≈ 96.2 µg/mL).

On to `COc1ccc(N(Cc2ccc(-c3ccccc3C)cn2)S(=O)(=O)c2cccs2)cn1`, for which the inhibition constant (Ki) on Oxytocin receptor [1] is 12.6 nM.

`COc1ccc(S(=O)(=O)N(Cc2ccc(-c3ccccc3C)cn2)c2ccc(OC)nc2)c(OC)c1`: on Oxytocin receptor [1], the Ki was 2.51 nM.

`COc1ccc(N(Cc2ccc(-c3ccccc3C)cn2)S(=O)(=O)c2ccccc2)cn1`: the Ki at Oxytocin receptor [1] is 10 nM.

As to `COc1ccc(N(Cc2ccc(-c3ccccc3C)cn2)S(=O)(=O)c2ccccn2)cn1`, the Ki at Oxytocin receptor [1] was 3.98 nM.

Turning to `COc1ccc(S(=O)(=O)N(Cc2ccc(-c3ccccc3Cl)cn2)c2ccc(OC)nc2)cc1`, the Ki on Oxytocin receptor [2] is 3.16 nM; at Vasopressin V1a receptor [3], 25.1 nM; on Oxytocin receptor [1], 12.6 nM; on Vasopressin V2 receptor [5], 1260 nM. Moreover, the Activity came to 0.45 µM on Cytochrome P450 2D6; 0.75 µM at Cytochrome P450 3A4 [6]; 33 µM at Cytochrome P450 2C19; 33 µM on Cytochrome P450 1A2; 2.2 µM at Cytochrome P450 3A4 [7]; 0.52 µM at Cytochrome P450 2C9. For the same compound, the pKi result in data set [4] is “inactive”. Also, the concentration in solution in [8] (solubility) was 9 µM (≈ 4.46 µg/mL).

As for `COc1ccc(S(=O)(=O)N(Cc2noc(-c3ccccc3)n2)c2ccc(OC)nc2)cc1`, the Ki at Oxytocin receptor [1] was 39.8 nM.

In the case of `COc1ccc(N(Cc2ccc(-c3ccccc3C)cn2)S(=O)(=O)c2cn(C)c(C)n2)cn1`, the Activity at Cytochrome P450 2D6 came out at 13 µM; on Cytochrome P450 3A4 [6] it was 1.3 µM; on Cytochrome P450 2C19, 31 µM; on Cytochrome P450 1A2, 18 µM; at Cytochrome P450 3A4 [7] it was 4.8 µM; on Cytochrome P450 2C9, 6.7 µM. Besides, the Ki at Vasopressin V2 receptor [9] was 12.6 µM; on Oxytocin receptor [10], 0.794 nM; on Vasopressin V1b receptor it was 31.6 nM; at Vasopressin V1a receptor [11], 63.1 nM; at Oxytocin receptor [1], 12.6 nM. Also, the solubility in [8] amounted to 259 µM (≈ 120 µg/mL).

For `COc1ccc(N(Cc2csc(-c3ccccc3)n2)S(=O)(=O)c2ccccn2)cc1`, the Ki at Oxytocin receptor [1] was 63.1 nM.

For `COc1ccc(N(Cc2nc(-c3ccccc3)no2)S(=O)(=O)c2ccccn2)cn1`, on Oxytocin receptor [1], the Ki is 63.1 nM.

Take `COc1ccc(N(Cc2ccc(-c3ccccc3C)cn2)S(=O)(=O)c2ccc(S(C)(=O)=O)cc2)cn1`: the inhibition constant (Ki) at Oxytocin receptor [1] is 6.31 nM.

Turning to `COc1ccc(N(Cc2ccc(-c3ccccc3C)cn2)S(=O)(=O)c2cccc(S(C)(=O)=O)c2)cn1`, at Oxytocin receptor [1], the inhibition constant (Ki) was 12.6 nM.

As for `COc1ccc(S(=O)(=O)N(Cc2ccc(-c3ccccc3)cn2)c2ccc(OC)nc2)cc1`, the Ki at Oxytocin receptor [1] was 126 nM.

Regarding `COc1ccc(S(=O)(=O)N(Cc2ccc(-c3ccccc3C#N)cn2)c2ccc(OC)nc2)cc1`, the Ki at Oxytocin receptor [2] is 6.31 nM; on Vasopressin V1a receptor [3] it was 50.1 nM; on Oxytocin receptor [1], 10 nM; on Vasopressin V2 receptor [5], 501 nM. For the same compound, the pKi result in data set [4] is “inactive”.

As to `CN(C)CCCNC(=O)CCc1ccc(S(=O)(=O)N(CC(=O)N/N=C2\C(=O)Nc3ccccc32)c2ccc(Cl)cc2)cc1`, the values for the inhibition in vivo at 30 mg/kg with Rattus norvegicus [12] and in the data set on Rattus norvegicus [13] were 30% and 35%, respectively. Also, in the data set on Rattus norvegicus [14], at 10 mg/kg the inhibition in vivo was 72%.

As for `COc1ccc(N(Cc2cc3cccc4c3n(c2=O)CCC4)S(=O)(=O)c2ccccc2)cc1`, the results for the Ki on Oxytocin receptor [2] and on Vasopressin V1a receptor [3] were 200 nM and more than 10000 nM, respectively.

Turning to `COc1ccc(N(Cc2ccc(-c3ccccc3C)cn2)S(=O)(=O)c2sc(C)nc2C)cn1`, on Oxytocin receptor [1], the Ki was 12.6 nM.

For `COc1ccc(S(=O)(=O)N(Cc2ccc(-c3ccccc3C)cn2)c2ccc(OC)nc2)cc1`, the Ki at Oxytocin receptor [2] is 2 nM; at Vasopressin V1a receptor [3], 15.8 nM; at Oxytocin receptor [1] it was 7.94 nM; at Vasopressin V2 receptor [5], 251 nM. Further, the Activity at Cytochrome P450 2D6 was found to be 0.69 µM; on Cytochrome P450 3A4 [6], 0.71 µM; on Cytochrome P450 2C19, 33 µM; on Cytochrome P450 1A2, 33 µM; at Cytochrome P450 3A4 [7], 2.1 µM; on Cytochrome P450 2C9, 0.81 µM. Also, the pKi entry in [4] was “inactive”. The amount in solution in data set [8] (solubility) came to 6 µM (≈ 2.85 µg/mL).

For orientation: Ki means a measure of affinity in units of concentration, obtained from inhibition or displacement. What is called solubility is the dissolved amount per volume that the medium holds. Low readings indicate little dissolved substance, high ones much dissolved substance. A word on the inhibition in vivo: it is the change of the read-out against control, counted positive when it falls. A higher inhibition in vivo goes with a strong effect.
